Experimental data as given in patent US7615564B2, “Isoquinoline derivatives having kinasae inhibitory activity and drugs containing the same” (Kirin Beer Kabushiki Kaisha, priority 2002, dated 2009).

Assays:
[1] = biological target: T1, Recombinant Rho kinase (fused protein composed of bovine Rho kinase catalytic region and glutathione S-transferase) (Bos taurus, UniProt Q28021); assay: Rho kinase inhibitory activity (phosphorylation of S6 231-239 substrate with γ32P-ATP); format: biochemical; conditions: concentration inhibiting substrate phosphorylation by 50%
T1 construct: fused protein composed of bovine Rho kinase catalytic region and glutathione S-transferase; glutathione S-transferase (GST); made in house; host or cells: insect cells infected with baculovirus
T1 sequence (Q28021 92-354 limits assumed): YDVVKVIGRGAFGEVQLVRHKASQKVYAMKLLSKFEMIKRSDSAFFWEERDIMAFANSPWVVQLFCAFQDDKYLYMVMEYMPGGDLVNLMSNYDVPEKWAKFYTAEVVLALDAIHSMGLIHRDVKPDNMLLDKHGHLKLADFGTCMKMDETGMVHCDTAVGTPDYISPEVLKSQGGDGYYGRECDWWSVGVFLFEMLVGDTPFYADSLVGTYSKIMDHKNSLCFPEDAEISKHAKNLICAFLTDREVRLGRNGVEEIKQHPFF
Procedure: This permits the substrate to be labeled with the radioisotope.
Thereafter, the substrate was adsorbed to a filter paper. ATP was washed away with a phosphoric acid solution, and the amount of the phosphorylated substrate was then measured with a liquid scintillation counter.

[2] = tested on: Mouse-derived CCR2 overexpressing human-derived histiocyte lymphoma (U937/CCR2); assay: Leukocyte migration inhibitory activity (MCP-1 induced migration, CHEMOTAXICELL); format: cell-based; conditions: U-937, test compound concentration 10 μg/ml, MCP-1 ligand, migration 1 hr
Procedure: Mouse-derived CCR2 overexpressing human-derived histiocyte lymphoma (U937/CCR2), was suspended in a 0.1% BSA-containing RPMI 1640 medium, to which a test compound had been added (5×10^6/ml), and the suspension was incubated for 20 min. A chemical solution (500 μl) (0.1% BSA-containing RPMI 1640 medium DMSO 1%), to which an MCP-1 ligand (1 μM) and the test compound had been added, was added to a 24-well plate. CHEMOTAXICELL was put thereon, and 200 μl of the cell suspension was added to the top layer, followed by migration under a 5% CO2 atmosphere at 37° C. for one hr. The number of cells, which had migrated to the lower chamber, was counted with a particle count analyzer (CDA-500, SYSMEX CORPORATION), and the percentage migration inhibition was calculated by the following equation: Migration inhibition (%)=(1−number of migrated cells in the presence of test compound/number of migrated cells in the absence of test compound)×100

Row | Structure (SMILES) | IC50 [1] | inhibition at 10 µg/mL [2]
1 | O=[N+]([O-])c1ccc(CN2CCC(Nc3cccc4cnccc34)C2)cc1 (centres unmarked) [Example 11, N-(5-Isoquinolyl)-N-[1-(4-nitrobenzyl)tetrahydro-1H-3-pyrrolyl]amine] | 660 nM | 
2 | Clc1ccc(CN2CCCC(Nc3cccc4cnccc34)C2)cc1 (centres unmarked) [Example 22, N5-[1-(4-Chlorobenzyl)-3-piperidyl]-5-isoquinolylamine] |  | 80%
3 | O=[N+]([O-])c1ccccc1CN1CCC(Nc2cccc3cnccc23)C1 (centres unmarked) [Example 9, N-(5-Isoquinolyl)-N-[1-(2-nitrobenzyl)tetrahydro-1H-3-pyrrolyl]amine] | 570 nM | 
4 | c1cc(NC2CCCN(Cc3ccsc3)C2)c2ccncc2c1 (centres unmarked) [Example 42, N-(5-Isoquinolinyl)-N-[1-(3-thienylmethyl)-3-piperidyl]amine] | 31 nM | 
5 | Nc1cc(Cl)ccc1CN1CCCC(Nc2cccc3cnccc23)C1 (centres unmarked) [Example 38, N5-[1-(2-Amino-4-chlorobenzyl)-3-piperidyl]-5-isoquinolylamine] | 400 nM | 
6 | c1ccc(CN2CCCC(Nc3cccc4cnccc34)C2)nc1 (centres unmarked) [Example 32, N-(5-Isoquinolinyl)-N-[1-(2-pyridylmethyl)-3-piperidyl]amine] | 1300 nM | 
7 | Fc1cccc(F)c1CN1CCC(Nc2cccc3cnccc23)C1 (centres unmarked) [Example 5, N5-[1-(2,6-Difluorobenzyl)tetrahydro-1H-3-pyrrolyl]-5-isoquinolylamine] | 73 nM | 93%
8 | O=[N+]([O-])c1cccc(CN2CCC(Nc3cccc4cnccc34)C2)c1 (centres unmarked) [Example 10, N-(5-Isoquinolyl)-N-[1-(3-nitrobenzyl)tetrahydro-1H-3-pyrrolyl]amine] | 200 nM | 
9 | c1cncc(CN2CCCC(Nc3cccc4cnccc34)C2)c1 (centres unmarked) [Example 33, N-(5-Isoquinolinyl)-N-[1-(3-pyridylmethyl)-3-piperidyl]amine] | 1000 nM | 
10 | Clc1ccc(CN2CCC(Nc3cccc4cnccc34)C2)cc1 (centres unmarked) [Example 3, N5-[1-(4-Chlorobenzyl)tetrahydro-1H-3-pyrrolyl]-5-isoquinolylamine] | 66 nM | 101%
11 | Fc1cccc(F)c1CN1CCCC(Nc2cccc3cnccc23)C1 (centres unmarked) [Example 24, N5-[1-(2,6-Difluorobenzyl)-3-piperidyl]-5-isoquinolylamine] | 230 nM | 
12 | Clc1cccc(Cl)c1CN1CCC(Nc2cccc3cnccc23)C1 (centres unmarked) [Example 6, N5-[1-(2,6-Dichlorobenzyl)tetrahydro-1H-3-pyrrolyl]-5-isoquinolylamine] | 140 nM | 
13 | Clc1ccccc1CN1CCC(Nc2cccc3cnccc23)C1 (centres unmarked) [Example 1, N5-[1-(2-Chlorobenzyl)tetrahydro-1H-3-pyrrolyl]-5-isoquinolylamine] | 99 nM | 86%
14 | Cc1ccc(CN2CCC(Nc3cccc4cnccc34)C2)cc1 (centres unmarked) [Example 7, N-(5-Isoquinolyl)-N-[1-(4-methylbenzyl)tetrahydro-1H-3-pyrrolyl]amine] | 96 nM | 103%
15 | c1csc(CN2CCCC(Nc3cccc4cnccc34)C2)c1 (centres unmarked) [Example 41, N-(5-Isoquinolinyl)-N-[1-(2-thienylmethyl)-3-piperidyl]amine] | 190 nM | 
16 | Clc1ccccc1CN1CCCC(Nc2cccc3cnccc23)C1 (centres unmarked) [Example 20, N5-[1-(2-Chlorobenzyl)-3-piperidyl]-5-isoquinolylamine] | 210 nM | 69%
17 | Nc1ccccc1CN1CCCC(Nc2cccc3cnccc23)C1 (centres unmarked) [Example 35, N5-[1-(2-Aminobenzyl)-3-piperidyl]-5-isoquinolylamine] | 270 nM | 
18 | Clc1cccc(Cl)c1CN1CCCC(Nc2cccc3cnccc23)C1 (centres unmarked) [Example 25, N5-[1-(2,6-Dichlorobenzyl)-3-piperidyl]-5-isoquinolylamine] | 1200 nM | 
19 | Nc1cc(Cl)ccc1CN1CCC(Nc2cccc3cnccc23)C1 (centres unmarked) [Example 19, N5-[1-(2-Amino-4-chlorobenzyl)tetrahydro-1H-3-pyrrolyl]-5-isoquinolylamine] | 240 nM | 82%
20 | Nc1ccc(CN2CCC(Nc3cccc4cnccc34)C2)cc1 (centres unmarked) [Example 18, N5-[1-(4-Aminobenzyl)tetrahydro-1H-3-pyrrolyl]-5-isoquinolylamine] | 230 nM | 94%
21 | c1cc(NC2CCCN(Cc3ccncc3)C2)c2ccncc2c1 (centres unmarked) [Example 34, N-(5-Isoquinolinyl)-N-[1-(4-pyridylmethyl)-3-piperidyl]amine] | 1500 nM | 

Row | Structure (SMILES) | IC50 [1] | inhibition at 10 µg/mL [2]
22 | O=[N+]([O-])c1ccc(CN2CCCC(Nc3cccc4cnccc34)C2)cc1 (centres unmarked) [Example 30, N-(5-Isoquinolinyl)-N-[1-(4-nitrobenzyl)-3-piperidyl]amine] | 1800 nM | 
23 | Cc1ccc(CN2CCCC(Nc3cccc4cnccc34)C2)cc1 (centres unmarked) [Example 26, N-(5-Isoquinolinyl)-N-[1-(4-methylbenzyl)-3-piperidyl]amine] | 180 nM | 
24 | O=[N+]([O-])c1cc(Cl)ccc1CN1CCC(Nc2cccc3cnccc23)C1 (centres unmarked) [Example 12, N5-[1-(4-Chloro-2-nitrobenzyl)tetrahydro-1H-3-pyrrolyl]-5-isoquinolylamine] | 1300 nM | 
25 | c1cc(NC2CCN(Cc3ccncc3)C2)c2ccncc2c1 (centres unmarked) [Example 15, N-(5-Isoquinolyl)-N-[1-(4-pyridylmethyl)tetrahydro-1H-3-pyrrolyl]amine] | 1100 nM | 
26 | c1ccc(CN2CCC(Nc3cccc4cnccc34)C2)nc1 (centres unmarked) [Example 13, N-(5-Isoquinolyl)-N-[1-(2-pyridylmethyl)tetrahydro-1H-3-pyrrolyl]amine] | 480 nM | 
27 | O=[N+]([O-])c1ccccc1CN1CCCC(Nc2cccc3cnccc23)C1 (centres unmarked) [Example 28, N-(5-Isoquinolinyl)-N-[1-(2-nitrobenzyl)-3-piperidyl]amine] | 580 nM | 
28 | c1ccc(CN2CCCC(Nc3cccc4cnccc34)C2)cc1 (centres unmarked) [Example 23, N-(1-Benzyl-3-piperidyl)-5-isoquinolylamine] | 240 nM | 
29 | Nc1ccccc1CN1CCC(Nc2cccc3cnccc23)C1 (centres unmarked) [Example 16, N5-[1-(2-Aminobenzyl)tetrahydro-1H-3-pyrrolyl]-5-isoquinolylamine] | 210 nM | 99%
30 | c1cc(NC2CCCN(Cc3cc[nH]c3)C2)c2ccncc2c1 (centres unmarked) [Example 40, N-(5-Isoquinolinyl)-N-[1-(1H-3-pyrrolylmethyl)-3-piperidyl]amine] | 670 nM | 
31 | Nc1ccc(CN2CCCC(Nc3cccc4cnccc34)C2)cc1 (centres unmarked) [Example 37, N5-[1-(4-Aminobenzyl)-3-piperidyl]-5-isoquinolylamine] | 290 nM | 
32 | Nc1cccc(CN2CCCC(Nc3cccc4cnccc34)C2)c1 (centres unmarked) [Example 36, N5-[1-(3-Aminobenzyl)-3-piperidyl]-5-isoquinolylamine] | 310 nM | 
33 | c1coc(CN2CCCC(Nc3cccc4cnccc34)C2)c1 (centres unmarked) [Example 43, N-[1-(2-Furylmethyl)-3-piperidyl]-N-(5-isoquinolyl)amine] | 200 nM | 
34 | c1cncc(CN2CCC(Nc3cccc4cnccc34)C2)c1 (centres unmarked) [Example 14, N-(5-Isoquinolyl)-N-[1-(3-pyridylmethyl)tetrahydro-1H-3-pyrrolyl]amine] | 590 nM | 
35 | c1cc(NC2CCCN(Cc3ccoc3)C2)c2ccncc2c1 (centres unmarked) [Example 44, N-[1-(3-Furylmethyl)-3-piperidyl]-N-(5-isoquinolyl)amine] | 110 nM | 
36 | c1c[nH]c(CN2CCCC(Nc3cccc4cnccc34)C2)c1 (centres unmarked) [Example 39, N-(5-Isoquinolinyl)-N-[1-(1H-2-pyrrolylmethyl)-3-piperidyl]amine] | 23 nM | 
37 | Clc1cccc(CN2CCCC(Nc3cccc4cnccc34)C2)c1 (centres unmarked) [Example 21, N5-[1-(3-Chlorobenzyl)-3-piperidyl]-5-isoquinolylamine] | 270 nM | 97%
38 | Fc1ccc(CN2CCC(Nc3cccc4cnccc34)C2)cc1 (centres unmarked) [Example 4, N5-[1-(4-Fluorobenzyl)tetrahydro-1H-3-pyrrolyl]-5-isoquinolylamine] | 93 nM | 98%
39 | Clc1cccc(CN2CCC(Nc3cccc4cnccc34)C2)c1 (centres unmarked) [Example 2, N5-[1-(3-Chlorobenzyl)tetrahydro-1H-3-pyrrolyl]-5-isoquinolylamine] | 63 nM | 90%
40 | CC(C)c1ccc(CN2CCC(Nc3cccc4cnccc34)C2)cc1 (centres unmarked) [Example 8, N5-[1-(4-Isopropylbenzyl)tetrahydro-1H-3-pyrrolyl]-5-isoquinolylamine] | 200 nM | 
41 | O=[N+]([O-])c1cccc(CN2CCCC(Nc3cccc4cnccc34)C2)c1 (centres unmarked) [Example 29, N-(5-Isoquinolinyl)-N-[1-(3-nitrobenzyl)-3-piperidyl]amine] | 1900 nM | 
42 | O=[N+]([O-])c1cc(Cl)ccc1CN1CCCC(Nc2cccc3cnccc23)C1 (centres unmarked) [Example 31, N5-[1-(4-Chloro-2-nitrobenzyl)-3-piperidyl]-5-isoquinolylamine] | 2300 nM | 
